# According to patent publication US20240158430A1, “NOVEL COMPOUND OR SALT THEREOF, AND ANTITUMOR ACTIVATOR CONTAINING SAME AS ACTIVE INGREDIENT” (AKITA UNIVERSITY, priority 2021, published 2024):
# pIC50: −log10 of the molar value. Like-named read-outs stand apart in the source and are kept apart here.
# Assays:
# [1] = test system: colorectal cancer cell line HCT116; test: Cell growth inhibitory activity, HCT116; format: cell-based; settings: for pIC50: Table 3, HCT116, cell count after 72 hours of culture vs DMSO control, read-out: IC50
# Protocol: (§1) The cell growth inhibitory activity against a colorectal cancer cell line HCT116 was measured. As an index of cell growth inhibitory activity, a concentration at which cell growth was inhibited by 50% as compared with a control (IC50) was used. The method is as follows. HCT116 was added to a 6-well plate by 5×10^4, compounds having various concentrations were added after 24 hours, and the number of cells was counted after 72 hours of culture. As the control, DMSO was used in an amount equal to the amount added in accordance with the addition concentration of the highest-concentration compound. The number of cells at each concentration relative to the control was expressed as a percentage.
# (§2) The method is as described above.
# (§3) The cell growth inhibitory activity (IC50) of each of curcumin, GO-Y199, and GO-Y206 against the colorectal cancer cell lines DLD-1 and HCT116 and the gastric cancer cell lines KATO III and H-111-TC was measured. The method is as described above.
# Turbidity measurement = format: physicochemical; settings: for Turbidity (Relative Value): Table 3, relative to curcumin = 1
# Protocol: The turbidity of various compounds was measured. The method is as follows. […] Curcumin was cloudy while GO-Y199 was clear. The solubility was measured with a turbidimeter (WZB-170 Portable Turbidimeter available from REX). The turbidity of the compound was corrected for concentration.
# Subsequently, GO-Y206 and curcumin were adjusted to final concentrations of 1.25 μM and 5.00 μM, respectively, and their turbidities were measured.
# [2] = test system: colorectal cancer cell line DLD-1; test: Cell growth inhibitory activity, DLD-1; format: cell-based; settings: Table 6; read-out: IC50 (μM) DLD-1
# Protocol: as §1, §2, §3
# [3] = test system: gastric cancer cell line H-111-TC; test: Cell growth inhibitory activity, H-111-TC; format: cell-based; settings: Table 6
# Protocol: as §1, with “percentage. In Table 3, the turbidities of the compounds are also indicated.” for “percentage.”
# as §3, with “above. FIG. 8 indicates the results of cell growth inhibitory activity of these compounds against various cancer cell lines.” for “above.”
# [4] = test system: gastric cancer cell line KATO III; test: Cell growth inhibitory activity, KATO III; format: cell-based; settings: Table 6; read-out: IC50 (μM) KATO III
# Protocol: as §1, §2, §3
# [5] = Table 1, average turbidity corrected for final concentration (1.7-170 μm, per compound)
# [6] = Table 1, turbidity/μm relative to curcumin = 1
structure (smiles),measurement,setting,value
COCOc1cc(C=CC(=O)CC(SCCOCCOCCOCCOCc2cn(CCCOC(=O)CCCCC3SCC4NC(=O)NC43)nn2)c2cc(OCOC)cc(OCOC)c2)cc(OCOC)c1 (mixture of isomers) [GO-Y195],pIC50,[1],5.74
COCOc1cc(C=CC(=O)CC(SCCOCCOCCOCCOCc2cn(C3OC(CO)C(O)C(O)C3O)nn2)c2cc(OCOC)cc(OCOC)c2)cc(OCOC)c1 (mixture of isomers) [GO-Y196],Turbidity/μm,Turbidity measurement; [5],0 NTU/μM
same,Relative Value (turbidity),Turbidity measurement; [6],0
same,Turbidity (Relative Value),Turbidity measurement,0
same,Ave Turbidity (NTU),Turbidity measurement; final conc. 8.3 μm in DDW,0 NTU
same,pIC50,[1],6.17
COCOc1cc(C=CC(=O)CC(SCCOCCOCCOCCOCc2cn(C3CC(O)C(O)C(CO)O3)nn2)c2cc(OCOC)cc(OCOC)c2)cc(OCOC)c1 (mixture of isomers) [GO-Y206],IC50,[2],1.21 µM
same,IC50,[3],4.67 µM
same,IC50,[4],3.11 µM
same,Turbidity/μm,"Turbidity measurement; Table 2, final conc. 1.25 μM",0.144 NTU/μM
same,Turbidity (NTU),"Turbidity measurement; Table 2, final conc. 5.0 μM",1.82 NTU
same,Turbidity/μm,"Turbidity measurement; Table 2, final conc. 5.0 μM",0.364 NTU/μM
same,Relative Value (turbidity),"Turbidity measurement; Table 2, value in parentheses, relative to curcumin = 1.00",(0.052)
same,turbidity as percent of curcumin,Turbidity measurement; from averaged NTU/μM,5%
same,IC50,"[1]; Table 6, read-out: IC50 (μM) HCT116",0.91 µM
"COCOc1cc(/C=C/C(=O)CC(SCC(=O)OC)c2cc(OCOC)cc(OCOC)c2)cc(OCOC)c1 (racemic) [GO-Y136, reference compound]",Turbidity/μm,Turbidity measurement; [5],0.024 NTU/μM
same,Relative Value (turbidity),Turbidity measurement; [6],0.083
same,Turbidity (Relative Value),Turbidity measurement,0.083
same,Ave Turbidity (NTU),Turbidity measurement; final conc. 1.7 μm in DDW,0.04 ± 0.0082 NTU
same,pIC50,[1],6.05
COCOc1cc(/C=C/C(=O)CC(SCCOCCOCCOCCOCc2cn(CCCO)nn2)c2cc(OCOC)cc(OCOC)c2)cc(OCOC)c1 (racemic) [GO-Y194],pIC50,[1],6.30
